These are literature values, as cited in patent US10590413B2, “Chiral control” (WAVE LIFE SCIENCES LTD., priority 2012, dated 2020).

The test system of one series is NK Lytic Activity. To be noted: cited from earlier work; for NK Lytic Activity (LU): human PBMC cultured with ODN 6 μg/ml for 24 hr, lysis of 51Cr-labeled K562 cells; for LU (NK lytic activity): human PBMC, ODN 6 μg/ml for 24 hr, lysis of Cr-labeled K562 cells, cells alone 0.01.
The subject of series [1] is Murine IL-6 production and B cell activation. To be noted: cited from earlier work; for IL-6 (pg/ml) CH12.LX: CH12.LX cells; for SI (stimulation index, [3H] uridine uptake, fold increase from unstimulated control): cells stimulated with 20 μM CpG O-ODN; for SI (stimulation index, [3H] uridine uptake, fold increase from unstimulated control) / SI (stimulation index, [3H] uridine uptake): mean ± SD of triplicates; for SI (stimulation index, [3H] uridine uptake): fold increase from unstimulated control, 20 μM CpG O-ODN; for IgM: unstimulated culture 547 ± 82 ng/ml; for IL-6 (pg/ml) SPLENIC B CELL: splenic B cells.

The subject of the next series is human PBMC. The note with it: cited from earlier work.
Setting [2] is: unstimulated control ≤10 pg/ml, US 6,239,116 Table 2.
Setting [3] is: ODN 12 μg/ml, 4 hr, 10% autologous serum, level above wells with no ODN, ELISA.
[4] abbreviates: ODN 12 μg/ml, 24 hr, 10% autologous serum, level above wells with no ODN, ELISA.

Like-named read-outs stand apart in the source and are kept apart here.

For the substance “1828 (DNA TCAGCGTGCGCC; chemistry not given here) [Oligonucleotide 1828]”, in the series with NK Lytic Activity, the “NK Lytic Activity (LU)” value is on record as 0.01 LU and the “LU (NK lytic activity)” value is 0.01 LU.

“1777 (DNA ACCATGGACGAGCTGTTTCCCCTC; chemistry not given here) [Oligonucleotide 1777]”: in the series on NK Lytic Activity, the “NK Lytic Activity (LU)” value is on record as 0.05 LU and the “LU (NK lytic activity)” value is 0.05 LU.

As to “1615 (DNA TCCATGGCGGTCCTGATGCT; chemistry not given here) [Oligonucleotide 1615]”, in series [1], the “IL-6 (pg/ml) CH12.LX” value is 1201 ± 155 pg/mL; the “SI (stimulation index, [3H] uridine uptake, fold increase from unstimulated control)” value is listed as 3.7 ± 0.3; the “SI (stimulation index, [3H] uridine uptake)” value is 3.7 ± 0.3; the “IL-6 (pg/ml) SPLENIC B CELL” value is 850 ± 202 pg/mL. In series [1] (setting [2]), the “IL-6 (pg/ml) CH12.LX” value was 1201 ± 155 pg/mL and the “IL-6 (pg/ml) SPLENIC B CELL” value is 850 ± 202 pg/mL. Moreover, the IgM in series [1] (measured by ELISA) was 3212 ± 617 ng/mL. Also, the TNF-α in the series with human PBMC (setting [3]) was 145 pg/mL. In the series on human PBMC (setting [4]), the GM-CSF is 45 pg/mL, the IFN-γ was 7.8 pg/mL, the IL-6 was 600 pg/mL and the IL-12 was 145 pg/mL. Moreover, in the series with human PBMC, the GM-CSF was 45, the IFN-γ is on record as 7.8, the IL-6 was 600 and the IL-12 is given as 250. Further, in the series with human PBMC, the TNF-α was 145.

Turning to “1639 (DNA TCCATAACGTTCCTGATGCT; chemistry not given here) [Oligonucleotide 1639]”, in series [1], the “IL-6 (pg/ml) CH12.LX” value is 1827 ± 83 pg/mL; the “SI (stimulation index, [3H] uridine uptake, fold increase from unstimulated control)” value is 11.5 ± 0.4; the “SI (stimulation index, [3H] uridine uptake)” value is 11.5 ± 0.4; the “IL-6 (pg/ml) SPLENIC B CELL” value was 2012 ± 132 pg/mL. In series [1] (setting [2]), the “IL-6 (pg/ml) CH12.LX” value was 1827 ± 83 pg/mL and the “IL-6 (pg/ml) SPLENIC B CELL” value was 2012 ± 132 pg/mL. In addition, the “IgM” value in series [1] (ELISA) was 9489 ± 103 ng/mL. Further, the IgM in series [1] (measured by ELISA) is 9439 ± 103 ng/mL. The TNF-α in the series with human PBMC (setting [3]) is 220 pg/mL. For the same substance, in the series on human PBMC (setting [4]), the GM-CSF is 40 pg/mL, the IFN-γ is 15.6 pg/mL, the IL-6 is 625 pg/mL and the IL-12 is 220 pg/mL. In addition, in the series with human PBMC, the GM-CSF is listed as 40, the IFN-γ is on record as 15.6, the IL-6 is 625 and the IL-12 is given as 60. Moreover, the TNF-α with human PBMC was 220.

As to “1778 (DNA ACCATGGACGACCTGTTTCCCCTC; chemistry not given here) [Oligonucleotide 1778]”, in the series on NK Lytic Activity, the “NK Lytic Activity (LU)” value is reported as 0.01 LU and the “LU (NK lytic activity)” value is 0.01 LU.

As to “1825 (DNA CTGCTGAGACTGGAG; chemistry not given here) [Oligonucleotide 1825]”, in the series on NK Lytic Activity, the “NK Lytic Activity (LU)” value is reported as 0.01 LU and the “LU (NK lytic activity)” value was 0.01 LU.

With “1637 (DNA TCCATGCCGGTCCTGATGCT; chemistry not given here) [Oligonucleotide 1637]”, in series [1], the “IL-6 (pg/ml) CH12.LX” value is 136 ± 27 pg/mL; the “SI (stimulation index, [3H] uridine uptake, fold increase from unstimulated control)” value was 1.7 ± 0.2; the “SI (stimulation index, [3H] uridine uptake)” value was 1.7 ± 0.2; the “IL-6 (pg/ml) SPLENIC B CELL” value is 46 ± 6 pg/mL. Further, in series [1] (setting [2]), the “IL-6 (pg/ml) CH12.LX” value was 136 ± 27 pg/mL and the “IL-6 (pg/ml) SPLENIC B CELL” value was 46 ± 6 pg/mL. Moreover, the IgM in series [1] (measured by ELISA) was 770 ± 72 ng/mL. Further, in the series with human PBMC (setting [3]), the TNF-α is 16 pg/mL. Also, in the series on human PBMC (setting [4]), the GM-CSF is 15.6 pg/mL, the IFN-γ was 7.8 pg/mL, the IL-6 was 550 pg/mL and the IL-12 was 16 pg/mL. In the series on human PBMC, the GM-CSF is recorded as 15.6, the IFN-γ is on record as 7.8, the IL-6 is 550 and the IL-12 was 35. For the same substance, in the series with human PBMC, the TNF-α is given as 16.

Regarding “1636 (DNA TCCATGTCGATCCTGATGCT; chemistry not given here) [Oligonucleotide 1636]”, in series [1], the “IL-6 (pg/ml) CH12.LX” value was 1181 ± 76 pg/mL; the “SI (stimulation index, [3H] uridine uptake, fold increase from unstimulated control)” value was 5.4 ± 0.4; the “SI (stimulation index, [3H] uridine uptake)” value is on record as 5.4 ± 0.4; the “IL-6 (pg/ml) SPLENIC B CELL” value was 947 ± 132 pg/mL. In series [1] (setting [2]), the “IL-6 (pg/ml) CH12.LX” value is 1181 ± 76 pg/mL and the “IL-6 (pg/ml) SPLENIC B CELL” value is 947 ± 132 pg/mL. For the same substance, the IgM in series [1] (measured by ELISA) was 3983 ± 485 ng/mL. For the same substance, in the series on human PBMC (setting [3]), the TNF-α is 250 pg/mL. In the series with human PBMC (setting [4]), the GM-CSF was 40 pg/mL, the IFN-γ is 35 pg/mL, the IL-6 is 325 pg/mL and the IL-12 is 250 pg/mL. Moreover, in the series with human PBMC, the GM-CSF is 40, the IFN-γ is 35, the IL-6 is reported as 325 and the IL-12 was 0. The TNF-α in the series with human PBMC is on record as 250.

Regarding “1707 (DNA TCCATGACGTCCCTGATGCT; chemistry not given here) [Oligonucleotide 1707]”, in series [1], the “SI (stimulation index, [3H] uridine uptake, fold increase from unstimulated control)” value is 4.0 ± 0.2; the “SI (stimulation index, [3H] uridine uptake)” value is on record as 4.0 ± 0.2; the “IL-6 (pg/ml) SPLENIC B CELL” value is 1147 ± 175 pg/mL. In series [1] (measured by ELISA), the IgM was 3534 ± 217 ng/mL. Moreover, in series [1] (setting [2]), the “IL-6 (pg/ml) SPLENIC B CELL” value is 1147 ± 175 pg/mL. Further, in the series on human PBMC (setting [3]), the TNF-α is 70 pg/mL. Further, in the series on human PBMC (setting [4]), the GM-CSF is 0 pg/mL, the IFN-γ is 17 pg/mL, the IL-6 was 300 pg/mL and the IL-12 is 70 pg/mL. Besides, in the series with human PBMC, the GM-CSF was 0, the IFN-γ is given as 17, the IL-6 is 300 and the IL-12 is 0. For the same substance, the TNF-α in the series with human PBMC is 70.

In the case of “1708 (DNA TCCATCACGTGCCTGATGCT; chemistry not given here) [Oligonucleotide 1708]”, in series [1], the “SI (stimulation index, [3H] uridine uptake, fold increase from unstimulated control)” value is 1.5 ± 0.1; the “SI (stimulation index, [3H] uridine uptake)” value is given as 1.5 ± 0.1; the “IL-6 (pg/ml) SPLENIC B CELL” value was 59 ± 3 pg/mL. Besides, the IgM in series [1] (measured by ELISA) is 466 ± 109 ng/mL. Besides, the “IL-6 (pg/ml) SPLENIC B CELL” value in series [1] (setting [2]) is 59 ± 3 pg/mL. Besides, the TNF-α with human PBMC (setting [3]) is 10 pg/mL. Further, in the series on human PBMC (setting [4]), the IFN-γ was 17 pg/mL, the IL-6 was 270 pg/mL and the IL-12 was 10 pg/mL. Further, in the series on human PBMC, the GM-CSF is recorded as 0, the IFN-γ was 17, the IL-6 is given as 270 and the IL-12 is listed as 0. Besides, the TNF-α with human PBMC was 10.

“1614 (DNA TCCATGACGGTCCTGATGCT; chemistry not given here) [Oligonucleotide 1614]”: in series [1], the “IL-6 (pg/ml) CH12.LX” value is 1533 ± 321 pg/mL; the “SI (stimulation index, [3H] uridine uptake, fold increase from unstimulated control)” value is 10.8 ± 0.6; the “SI (stimulation index, [3H] uridine uptake)” value is reported as 10.8 ± 0.6; the “IL-6 (pg/ml) SPLENIC B CELL” value was 1812 ± 103 pg/mL. In series [1] (setting [2]), the “IL-6 (pg/ml) CH12.LX” value is 1533 ± 321 pg/mL and the “IL-6 (pg/ml) SPLENIC B CELL” value is 1812 ± 103 pg/mL. Moreover, the IgM in series [1] (measured by ELISA) was 7558 ± 414 ng/mL. The TNF-α in the series with human PBMC (setting [3]) was 31 pg/mL. Besides, in the series on human PBMC (setting [4]), the GM-CSF is 50 pg/mL, the IFN-γ was 0 pg/mL, the IL-6 is 550 pg/mL and the IL-12 was 31 pg/mL.

For the substance “1634 (DNA TCCATGTCGCTCCTGATGCT; chemistry not given here) [Oligonucleotide 1634]”, in series [1], the “IL-6 (pg/ml) CH12.LX” value was 1049 ± 223 pg/mL; the “SI (stimulation index, [3H] uridine uptake, fold increase from unstimulated control)” value is 9.2 ± 0.9; the “SI (stimulation index, [3H] uridine uptake)” value was 9.2 ± 0.9; the “IL-6 (pg/ml) SPLENIC B CELL” value is 1671 ± 175 pg/mL. For the same substance, in series [1] (setting [2]), the “IL-6 (pg/ml) CH12.LX” value is 1049 ± 223 pg/mL and the “IL-6 (pg/ml) SPLENIC B CELL” value is 1671 ± 175 pg/mL. Moreover, the IgM in series [1] (measured by ELISA) is 6256 ± 261 ng/mL. In addition, the TNF-α in the series with human PBMC (setting [3]) is 400 pg/mL. In the series on human PBMC (setting [4]), the GM-CSF was 85 pg/mL, the IFN-γ is 40 pg/mL, the IL-6 was 300 pg/mL and the IL-12 was 400 pg/mL. In the series on human PBMC, the GM-CSF was 85, the IFN-γ is given as 40, the IL-6 is 300 and the IL-12 is on record as 200. The TNF-α with human PBMC is reported as 400.

Turning to “1618 (DNA TCCATGACGTTCCTGATGCT; chemistry not given here) [Oligonucleotide 1618]”, in series [1], the “IL-6 (pg/ml) CH12.LX” value is 2109 ± 291 pg/mL; the “SI (stimulation index, [3H] uridine uptake, fold increase from unstimulated control)” value was 12.9 ± 0.7; the “SI (stimulation index, [3H] uridine uptake)” value is listed as 12.9 ± 0.7; the “IL-6 (pg/ml) SPLENIC B CELL” value is 2596 ± 166 pg/mL. Besides, in series [1] (setting [2]), the “IL-6 (pg/ml) CH12.LX” value was 2109 ± 291 pg/mL and the “IL-6 (pg/ml) SPLENIC B CELL” value is 2596 ± 166 pg/mL. Moreover, the IgM in series [1] (measured by ELISA) is 10425 ± 674 ng/mL. Besides, the TNF-α in the series with human PBMC (setting [3]) is 60 pg/mL. Moreover, in the series with human PBMC (setting [4]), the GM-CSF is 15.6 pg/mL, the IFN-γ was 15.6 pg/mL, the IL-6 is 300 pg/mL and the IL-12 is 62 pg/mL. In the series on human PBMC, the GM-CSF is on record as 15.6, the IFN-γ is 15.6, the IL-6 was 300 and the IL-12 is 62. For the same substance, the TNF-α in the series on human PBMC is given as 60.
